Values quoted from earlier work as cited in publication PMC9475448, “What a difference a methylene makes: replacing Glu with Asp or Aad in the Lys-urea-Glu pharmacophore of PSMA-targeting radioligands to reduce kidney and salivary gland uptake” (Theranostics, 2022).

Columns and labels:
PSMA = target: T1, PSMA (Homo sapiens, UniProt Q04609); design: method as in PMID 30097503; details: read-out: Ki (PSMA inhibitor); cited from earlier work
T1 construct: LNCaP cells (400,000/well) were plated onto a 24-well poly-D-lysine coated plate for 48 h; endogenous in cells; host or cells: LNCaP prostate cancer cells

mouse model = details: up to 657 mg/kg; cited from earlier work
parotid gland = details: in vivo; cited from earlier work

T1 sequence (Q04609 whole entry): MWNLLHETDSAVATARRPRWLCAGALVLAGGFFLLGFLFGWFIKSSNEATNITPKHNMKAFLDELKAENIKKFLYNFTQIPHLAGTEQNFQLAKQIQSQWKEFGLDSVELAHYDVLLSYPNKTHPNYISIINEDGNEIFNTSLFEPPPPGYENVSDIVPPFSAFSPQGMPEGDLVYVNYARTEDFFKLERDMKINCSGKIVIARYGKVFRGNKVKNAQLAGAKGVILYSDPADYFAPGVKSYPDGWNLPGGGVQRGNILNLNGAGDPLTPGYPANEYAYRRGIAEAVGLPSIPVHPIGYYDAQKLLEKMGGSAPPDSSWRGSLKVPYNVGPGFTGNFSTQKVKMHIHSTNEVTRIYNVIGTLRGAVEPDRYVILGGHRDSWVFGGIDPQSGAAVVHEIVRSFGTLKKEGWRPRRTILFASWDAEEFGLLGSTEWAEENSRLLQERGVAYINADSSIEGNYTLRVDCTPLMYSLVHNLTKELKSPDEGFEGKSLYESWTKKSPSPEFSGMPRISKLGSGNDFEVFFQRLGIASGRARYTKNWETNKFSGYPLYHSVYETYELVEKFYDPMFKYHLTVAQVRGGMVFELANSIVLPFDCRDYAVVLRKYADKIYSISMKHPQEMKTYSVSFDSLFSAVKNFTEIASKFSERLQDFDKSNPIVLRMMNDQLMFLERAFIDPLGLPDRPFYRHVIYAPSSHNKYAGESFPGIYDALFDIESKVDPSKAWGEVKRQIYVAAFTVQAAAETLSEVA

N[C@@H](CCC(=O)O)C(=O)[O-].[Na+] [monosodium glutamate]
Ki (PSMA): 900 nM | Effect of pretreatment on [68Ga]Ga-PSMA-11 uptake (mouse model): reduced uptake of [^68Ga]Ga-PSMA-11 in salivary glands and kidneys but had no effect on tumor uptake

botulinum toxin A
Reduction in SUVmean of the treated parotid gland in [68Ga]Ga-PSMA-11 scan vs baseline (parotid gland): up to 64%
